Source: US7642251B2, “Compounds for the treatment of hepatitis C” (Bristol-Myers Squibb Company, priority 2007, dated 2010)
Read-outs that look alike come from different tables or passages of the source.

Experiments:
HCV NS5B = target: T1, HCV NS5B (Hepatitis C virus genotype 1b, UniProt Q9WMX2); experiment: Modified HCV NS5B RdRp enzyme assay (preincubation protocol); type: biochemical
T1 construct: The cDNA encoding the NS5B protein of HCV, genotype 1b; made in house; host or cells: E. coli BL21(DE3)
Protocol: HCV NS5B RdRp cloning, expression, and purification. The cDNA encoding the NS5B protein of HCV, genotype 1b, was cloned into the pET21a expression vector. The protein was expressed with an 18 amino acid C-terminal truncation to enhance the solubility. The E. coli competent cell line BL21(DE3) was used for expression of the protein. Cultures were grown at 37° C. for ˜4 hours until the cultures reached an optical density of 2.0 at 600 nm. The cultures were cooled to 20° C. and induced with 1 mM IPTG. Fresh ampicillin was added to a final concentration of 50 μg/ml and the cells were grown overnight at 20° C.
Cell pellets (3 L) were lysed for purification to yield 15-24 mgs of purified NS5B. The lysis buffer consisted of 20 mM Tris-HCl, pH 7.4, 500 mM NaCl, 0.5% triton X-100, 1 mM DTT, 1 mM EDTA, 20% glycerol, 0.5 mg/ml lysozyme, 10 mM MgCl2, 15 ug/ml deoxyribonuclease I, and Complete™ protease inhibitor tablets (Roche). After addition of the lysis buffer, frozen cell pellets were resuspended using a tissue homogenizer. To reduce the viscosity of the sample, aliquots of the lysate were sonicated on ice using a microtip attached to a Branson sonicator. The sonicated lysate was centrifuged at 100,000×g for 1 hr at 4° C. and filtered through a 0.2 μm filter unit (Corning).
The protein was purified using three sequential chromatography steps: Heparin sepharose CL-6B, polyU sepharose 4B, and Hitrap SP sepharose (Pharmacia). The chromatography buffers were identical to the lysis buffer but contained no lysozyme, deoxyribonuclease I, MgCl2 or protease inhibitor and the NaCl concentration of the buffer was adjusted according to the requirements for charging the protein onto the column. Each column was eluted with a NaCl gradient which varied in length from 5-50 column volumes depending on the column type. After the final chromatography step, the resulting purity of the enzyme is >90% based on SDS-PAGE analysis. The enzyme was aliquoted and stored at −80° C.
Standard HCV NS5B RdRp enzyme assay. HCV RdRp genotype 1b assays were run in a final volume of 60 μl in 96 well plates (Costar 3912). The assay buffer is composed of 20 mM Hepes, pH 7.5, 2.5 mM KCl, 2.5 mM MgCl2, 1 mM DTT, 1.6 U RNAse inhibitor (Promega N2515), 0.1 mg/ml BSA (Promega R3961), and 2% glycerol. All compounds were serially diluted (3-fold) in DMSO and diluted further in water such that the final concentration of DMSO in the assay was 2%. HCV RdRp genotype 1b enzyme was used at a final concentration of 28 nM. A polyA template was used at 6 nM, and a biotinylated oligo-dT12 primer was used at 180 nM final concentration. Template was obtained commercially (Amersham 27-4110). Biotinylated primer was prepared by Sigma Genosys. 3H-UTP was used at 0.6 μCi (0.29 μM total UTP). Reactions were initiated by the addition of enzyme, incubated at 30° C. for 60 min, and stopped by adding 25 μl of 50 mM EDTA containing SPA beads (4 μg/μl, Amersham RPNQ 0007). Plates were read on a Packard Top Count NXT after >1 hr incubation at room temperature.
Modified HCV NS5B RdRp enzyme assay. A modified enzyme assay was performed essentially as described for the standard enzyme assay except for the following: The biotinylated oligo dT12 primer was precaptured on streptavidin-coated SPA beads by mixing primer and beads in assay buffer and incubating at room temperature for one hour. Unbound primer was removed after centrifugation. The primer-bound beads were resuspended in 20 mM Hepes buffer, pH 7.5 and used in the assay at final concentrations of 20 nM primer and 0.67 μg/μl beads. Order of addition in the assay: enzyme (14 nM) was added to diluted compound followed by the addition of a mixture of template (0.2 nM), 3H-UTP (0.6 μCi, 0.29 μM), and primer-bound beads, to initiate the reaction; concentrations given are final. Reactions were allowed to proceed for 4 hours at 30° C.
IC50 values for compounds were determined using seven different [I]. […]

HCV replicon cells = experiment: HCV replicon FRET assay; type: cell-based; conditions: Hepatitis C virus
Text: FRET Assay Preparation. To perform the HCV FRET screening assay, 96-well cell culture plates were used. The FRET peptide (Anaspec, Inc.) (Taliani et al., Anal. Biochem. 1996, 240, 60-67) contains a fluorescence donor, EDANS, near one end of the peptide and an acceptor, DABCYL, near the other end. The fluorescence of the peptide is quenched by […] resonance energy transfer (RET) between the donor and the acceptor, but as the NS3 protease cleaves the peptide the products are released from RET quenching and the fluorescence of the donor becomes apparent. The assay reagent was made as follows: 5× cell Luciferase cell culture lysis reagent from Promega (#E153A) diluted to 1× with dH2O, NaCl added to 150 mM final, the FRET peptide diluted to 20 μM final from a 2 mM stock.
To prepare plates, HCV replicon cells, with or without a Renilla luciferase reporter gene, were trypsinized and placed into each well of a 96-well plate with titrated test compounds added in columns 3 through 12; columns 1 and 2 contained a control compound (HCV protease inhibitor), and the bottom row contained cells without compound. The plates were then placed in a CO2 incubator at 37° C.
Assays. Subsequent to addition of the test compounds described above (FRET Assay Preparation), at various times the plate was removed and Alamar blue solution (Trek Diagnostics, #00-100) was added per well as a measure of cellular toxicity. After reading in a Cytoflour 4000 instrument (PE Biosystems), plates were rinsed with PBS and then used for FRET assay by the addition of 30 ul of the FRET peptide assay reagent described above (FRET Assay Preparation) per well. The plate was then placed into the Cytoflour 4000 instrument which had been set to 340 excite/490 emission, automatic mode for 20 cycles and the plate read in a kinetic mode. Typically, the signal to noise using an endpoint analysis after the reads was at least three-fold. Alternatively, after Alamar blue reading, plates were rinsed with PBS, 50 ul of DMEM (high glucose) without phenol red was added and plates were then used for luciferase assay using the Promega Dual-Glo Luciferase Assay System.
Compound analysis was determined by quantification of the relative HCV replicon inhibition and the relative cytotoxicity values. To calculate cytoxicity values, the average Alamar Blue fluorescence signals from the control wells were set as 100% non-toxic. The individual signals in each of the compound test wells were then divided by the average control signal and multiplied by 100% to determine […]. To calculate the HCV replicon inhibition values, an average background value was obtained from the two wells containing the highest amount of HCV protease inhibitor at the end of the assay period. These numbers were similar to those obtained from naïve Huh-7 cells.
The background numbers were then subtracted from the average signal obtained from the control wells and this number was used as 100% activity. The individual signals in each of the compound test wells were then divided by the averaged control values after background subtraction and multiplied by 100% to determine percent activity. EC50 values for a protease inhibitor titration were calculated as the concentration which caused a 50% reduction in FRET or luciferase activity. The two numbers generated for the compound plate, percent cytoxicity and percent activity were used to determine compounds of interest for further analysis.

[1] = preincubation protocol, read-out: IC50

T1 sequence (Q9WMX2 2420-2992): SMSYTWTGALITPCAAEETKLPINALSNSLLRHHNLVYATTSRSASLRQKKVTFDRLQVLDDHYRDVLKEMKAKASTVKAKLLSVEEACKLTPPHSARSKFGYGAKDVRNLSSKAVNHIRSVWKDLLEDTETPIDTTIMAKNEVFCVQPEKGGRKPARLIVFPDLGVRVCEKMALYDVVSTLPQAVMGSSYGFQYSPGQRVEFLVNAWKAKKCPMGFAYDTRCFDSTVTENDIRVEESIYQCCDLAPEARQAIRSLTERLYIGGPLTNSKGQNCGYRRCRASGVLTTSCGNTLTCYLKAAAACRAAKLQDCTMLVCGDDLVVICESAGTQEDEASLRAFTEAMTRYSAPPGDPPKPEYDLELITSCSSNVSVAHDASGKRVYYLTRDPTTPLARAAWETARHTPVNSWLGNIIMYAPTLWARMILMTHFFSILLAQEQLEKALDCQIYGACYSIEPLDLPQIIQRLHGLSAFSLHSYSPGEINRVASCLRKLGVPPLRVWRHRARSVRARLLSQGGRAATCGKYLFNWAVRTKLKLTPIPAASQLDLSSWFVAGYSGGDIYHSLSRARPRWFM

Row | Compound | IC50 (HCV NS5B; [1]) [nM] | EC50 (HCV replicon cells; FRET assay, read-out: EC50) [nM] | IC50 (HCV NS5B) [nM] | EC50 (HCV replicon cells) [nM]
1 | COc1ccc2c(c1)C=C(c1ncccc1N(C)C)Cn1c-2c(C2CCCCC2)c2ccc(C(=O)O)cc21 | 4.58 to 500 | 4.58 to 500 |  | 
2 | COc1ccc2c(c1)C=C(c1cc(C(=O)N3CCOCC3)ccn1)Cn1c-2c(C2CCCCC2)c2ccc(C(=O)O)cc21 | > 500 | > 500 |  | 
3 | COc1ccc2c(c1)C=C(c1ncccc1S(=O)(=O)N1CCOCC1)Cn1c-2c(C2CCCCC2)c2ccc(C(=O)O)cc21 | 4.58 to 500 | 4.58 to 500 |  | 
4 | COc1ccc2c(c1)C=C(c1ncccc1S(=O)(=O)N1C3CCC1CN(C)C3)Cn1c-2c(C2CCCCC2)c2ccc(C(=O)O)cc21 |  |  | > 500 | 4.58 to 500
5 | COc1ccc2c(c1)C=C(c1ncccc1N1CC(C)(C)C1=O)Cn1c-2c(C2CCCCC2)c2ccc(C(=O)O)cc21 | 4.58 to 500 | 4.58 to 500 |  | 
6 | COc1ccc2c(c1)C=C(c1ncccc1C(=O)N1CCN(C)CC1)Cn1c-2c(C2CCCCC2)c2ccc(C(=O)O)cc21 | 4.58 to 500 | 4.58 to 500 |  | 
7 | COc1ccc2c(c1)C=C(c1ncccc1C(=O)N(C)C)Cn1c-2c(C2CCCCC2)c2ccc(C(=O)O)cc21 | 4.58 to 500 | 4.58 to 500 |  | 
8 | COc1ccc2c(c1)C=C(c1ncccc1C(=O)N1CCCC1)Cn1c-2c(C2CCCCC2)c2ccc(C(=O)O)cc21 | 4.58 to 500 | 4.58 to 500 |  | 
9 | COc1ccc2c(c1)C=C(c1ncccc1C(=O)N1C3CCC1CN(C)C3)Cn1c-2c(C2CCCCC2)c2ccc(C(=O)O)cc21 |  |  | 4.58 to 500 | 4.58 to 500
10 | COc1ccc2c(c1)C=C(c1ncccc1C(=O)N1CCC(O)CC1)Cn1c-2c(C2CCCCC2)c2ccc(C(=O)O)cc21 | 4.58 to 500 | 4.58 to 500 |  | 
11 | COc1ccc2c(c1)C=C(c1ncccc1C(=O)N1CCCCC1)Cn1c-2c(C2CCCCC2)c2ccc(C(=O)O)cc21 | 4.58 to 500 | 4.58 to 500 |  | 
12 | COc1ccc2c(c1)C=C(c1ncccc1C(=O)N1CCOCC1)Cn1c-2c(C2CCCCC2)c2ccc(C(=O)NS(=O)(=O)N(C)C)cc21 | 4.58 to 500 | 4.58 to 500 |  | 
13 | COc1ccc2c(c1)C=C(c1cccc(N3CCOCC3)n1)Cn1c-2c(C2CCCCC2)c2ccc(C(=O)NS(=O)(=O)N(C)C)cc21 | 4.58 to 500 | 4.58 to 500 |  | 
14 | COc1ccc2c(c1)C=C(c1ncccc1S(=O)(=O)N1C3CCC1CN(C)C3)Cn1c-2c(C2CCCCC2)c2ccc(C(=O)NS(=O)(=O)N(C)C)cc21 |  |  | 4.58 to 500 | 4.58 to 500
15 | COc1ccc2c(c1)C=C(c1ncccc1C(=O)N1C3CCC1CN(C)C3)Cn1c-2c(C2CCCCC2)c2ccc(C(=O)NS(=O)(=O)N(C)C)cc21 |  |  | 4.58 to 500 | 4.58 to 500
16 | COc1ccc2c(c1)C=C(c1cccc(OCCN3CCOCC3)c1)Cn1c-2c(C2CCCCC2)c2ccc(C(=O)NS(=O)(=O)C(C)C)cc21 | 4.58 to 500 | > 500 |  | 

Row | Compound | IC50 (HCV NS5B; [1]) [nM] | EC50 (HCV replicon cells; FRET assay, read-out: EC50) [nM] | IC50 (HCV NS5B) [nM] | EC50 (HCV replicon cells) [nM]
17 | COc1ccc2c(c1)CC(c1cccc(OCCN(C)C)c1)Cn1c-2c(C2CCCCC2)c2ccc(C(=O)NS(=O)(=O)C(C)C)cc21 (centres unmarked) | 4.58 to 500 | 4.58 to 500 |  | 
18 | COc1ccc2c(c1)CC(c1cccc(OCCN3CCOCC3)c1)Cn1c-2c(C2CCCCC2)c2ccc(C(=O)NS(=O)(=O)C(C)C)cc21 (centres unmarked) | 4.58 to 500 | 4.58 to 500 |  | 
19 | COc1ccc2c(c1)C=C(c1ccccc1C(F)(F)F)Cn1c-2c(C2CCCCC2)c2ccc(C(=O)NS(=O)(=O)C(C)C)cc21 | 4.58 to 500 | > 500 |  | 
20 | COc1ccc2c(c1)C=C(c1ccccc1S(=O)(=O)N1CCCC1)Cn1c-2c(C2CCCCC2)c2ccc(C(=O)NS(=O)(=O)C(C)C)cc21 | 4.58 to 500 | > 500 |  | 
21 | COc1ccc2c(c1)C=C(c1ccccc1OC(F)(F)C(F)(F)F)Cn1c-2c(C2CCCCC2)c2ccc(C(=O)NS(=O)(=O)C(C)C)cc21 | 4.58 to 500 | > 500 |  | 
22 | COc1ccc2c(c1)C=C(c1c(F)cccc1C(F)(F)F)Cn1c-2c(C2CCCCC2)c2ccc(C(=O)NS(=O)(=O)C(C)C)cc21 | 4.58 to 500 | 4.58 to 500 |  | 
23 | COc1ccc2c(c1)C=C(c1cccc3c1OCCO3)Cn1c-2c(C2CCCCC2)c2ccc(C(=O)NS(=O)(=O)C(C)C)cc21 | 4.58 to 500 | > 500 |  | 
24 | COc1ccc2c(c1)C=C(c1cccc3c1OC(F)(F)O3)Cn1c-2c(C2CCCCC2)c2ccc(C(=O)O)cc21 | 4.58 to 500 | > 500 |  | 
25 | COc1ccc2c(c1)C=C(c1cc([N+](=O)[O-])c3[nH]ccc3c1)Cn1c-2c(C2CCCCC2)c2ccc(C(=O)O)cc21 | 4.58 to 500 | > 500 |  | 
26 | COc1ccc2c(c1)C=C(c1cnc(OC)c3[nH]ccc13)Cn1c-2c(C2CCCCC2)c2ccc(C(=O)O)cc21 | 4.58 to 500 | 4.58 to 500 |  | 
27 | COc1ccc2c(c1)C=C(c1ccc3sc(C)nc3c1)Cn1c-2c(C2CCCCC2)c2ccc(C(=O)O)cc21 | 4.58 to 500 | > 500 |  | 
28 | COc1ccc2c(c1)C=C(c1ccccc1C(=O)N1C3CCC1CN(C)C3)Cn1c-2c(C2CCCCC2)c2ccc(C(=O)OC(C)(C)C)cc21 |  |  | > 500 | > 500
29 | COc1ccc2c(c1)C=C(c1ccccc1C(=O)N1C3CCC1CN(C)C3)Cn1c-2c(C2CCCCC2)c2ccc(C(=O)O)cc21 |  |  | 4.58 to 500 | 4.58 to 500
30 | COc1ccc2c(c1)C=C(c1ccccc1C(=O)N1C3CCC1CN(C)C3)Cn1c-2c(C2CCCCC2)c2ccc(C(=O)NS(=O)(=O)C(C)C)cc21 |  |  | 4.58 to 500 | 4.58 to 500
31 | COc1ccc2c(c1)C=C(c1ccccc1C(=O)N1CCOCC1)Cn1c-2c(C2CCCCC2)c2ccc(C(=O)OC(C)(C)C)cc21 | > 500 | > 500 |  | 
